In PMC6272301, “Inhibition of Oxidative Stress and Skin Aging-Related Enzymes by Prenylated Chalcones and Other Flavonoids from Helichrysum teretifolium” (Molecules, 2015):
“And” between values parts separate entries of the source, which are not always exact repeats. Equal values may be shown once.

Assays:
[1] = Automated ORAC assay, peroxyl radical (AAPH; ORAC ROO.); conditions: peroxyl radical from AAPH, 37 °C; Trolox equivalents
Experimental: (§1) 3.4.2. Automated Oxygen Radicals Absorbance Capacity (ORAC) Assay
(§2) ORAC was measured according to the method described by Prior [30], with some modifications. […] The copper-initiated prooxidant activity was calculated using [(AreaBlank − AreaSample)/AreaBlank] × 100 and expressed as prooxidant units; one unit equals the prooxidant activity that reduces the area under the fluorescein decay curve by 1% in the ORAC assay.

[2] = Trolox equivalent absorbance capacity (TEAC) assay; conditions: Trolox equivalents; absorbance 734 nm, 25 °C
Experimental: 3.4.3. Trolox Equivalent Absorbance Capacity (TEAC) Assay
The total antioxidant activity of test samples were measured using previously described methods.

[3] = test system: Fe (II)-induced microsomal lipid peroxidation (rat liver microsomes); assay: Inhibition of Fe (II)-induced microsomal lipid peroxidation; format: biochemical; conditions: TBARS, purified compounds screened at 26.750 μg/mL, extract (HT) at 100 μg/mL
Source text: 3.4.4. Inhibition of Fe (II)-Induced Microsomal Lipid Peroxidation Assay
A modified assay described by Snijman et al. with little modifications.

[4] = biological target: T1, elastase (from porcine pancreas) (Sus scrofa, UniProt P00772); assay: Elastase inhibition assay; format: biochemical; conditions: substrate SANA, 100 μg/mL optimum concentration; for IC50: read-out: Inhibitory Activitis (IC50) Elastase (converted)
T1 construct: purchased Sigma-Aldrich, Inc. (St. Louis, MO, USA); host or cells: porcine pancreas
Experimental: (§3) Organic solvents, methanol, acetonitrile (HPLC grade), ethanol, ethyl acetate, dichloromethane and hexane were supplied by Merck (Cape Town, South Africa). TLC was conducted on normal-phase (Merck) Silica gel 60 PF254 pre-coated aluminum plates. Column chromatography was performed using silica gel 60 H (0.040–0.063 mm particle size, Merck) and Sephadex LH-20 (Sigma-Aldrich, Cape Town, South Africa). NMR spectra were recorded on an Avance 400 MHz NMR spectrometer (Bruker, Rheinstetten, Germany) in deuterated chloroform and acetone, using the solvent signals as internal reference. HRMS analysis was conducted on an Ultimate 3000 LC (Dionex Sunnyvale, CA, USA) coupled to a Bruker QTOF with electrospray ionization (ESI) interface working in the positive ion mode.
3.4.6. Elastase Inhibition Assay
Inhibition of elastase by the test samples was assayed using N-succyl-(Ala)3-nitroanilide (SANA) as the substrate, monitoring the release of p-nitroanilide by the method described by Chompo et al. with little adjustment. The inhibitory activity determined the intensity of colour released during cleavage of SANA by the action of elastase. Briefly, 1 mM SANA was prepared in 0.1 M Tris-HCl buffer pH 8.0 and 200 µL of this solution was added to the 20 µL of sample solution in a 96-Well plate. The mixtures were vortexed and preincubated for 10 min at 25 °C and then 20 µL of elastase from porcine pancrease (0.03 units/mL) was added. The mixtures were further incubated for 10 min and the absorbance was measured at 410 nm. Methanol was used as control, while oleanolic acid used as a positive control.

[5] = Automated ORAC assay, hydroxyl radical (H2O2-Cu2+; ORAC OH.); conditions: hydroxyl radical from H2O2 0.3% - Cu2+ 18 µM, 37 °C; Trolox equivalents
Experimental: as §1, §2

[6] = Copper-initiated prooxidant activity in the ORAC assay (Cu2+ without H2O2); conditions: Cu2+ (CuSO4) 18 µM without H2O2, 37 °C; prooxidant (arbitrary) units
Experimental: as §1, §2

[7] = Ferric-ion reducing antioxidant power assay (FRAP); conditions: ascorbic acid equivalents; absorbance 593 nm
Experimental: 3.4.1. Ferric-Ion Reducing Antioxidant Power Assay (FRAP)
Working FRAP reagent was prepared in accordance to the methods described previously. […] L-Ascorbic acid was used as a standard and the results were expressed as μM ascorbic acid equivalents per […] dry weight (μM AAE/g DW) of the test samples.

[8] = biological target: tyrosinase (from mushroom) (Agaricus bisporus, UniProt C7FF04); assay: Tyrosinase enzyme assay; format: biochemical; conditions: substrate L-Tyrosine; screened at effective concentration of 50 μg/mL
Experimental: as §3
Samples were dissolved in DMSO to a stock solution of 1 mg/mL, and further dilutions were then done with 50 mM sodium phosphate buffer (pH 6.5) for all working solutions. […] Incubation commenced for 30 min at room temperature and the enzyme activity was determined by measuring the absorbance at 490 nm.

T1 sequence (P00772 27-266): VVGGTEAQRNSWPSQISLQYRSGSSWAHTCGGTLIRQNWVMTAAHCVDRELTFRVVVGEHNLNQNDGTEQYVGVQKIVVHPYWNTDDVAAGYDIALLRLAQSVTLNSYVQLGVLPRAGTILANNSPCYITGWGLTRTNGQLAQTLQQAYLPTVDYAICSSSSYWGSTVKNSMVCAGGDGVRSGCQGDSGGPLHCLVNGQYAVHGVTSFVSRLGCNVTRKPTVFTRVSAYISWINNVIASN
tyrosinase (from mushroom), sequence (C7FF04 1-392): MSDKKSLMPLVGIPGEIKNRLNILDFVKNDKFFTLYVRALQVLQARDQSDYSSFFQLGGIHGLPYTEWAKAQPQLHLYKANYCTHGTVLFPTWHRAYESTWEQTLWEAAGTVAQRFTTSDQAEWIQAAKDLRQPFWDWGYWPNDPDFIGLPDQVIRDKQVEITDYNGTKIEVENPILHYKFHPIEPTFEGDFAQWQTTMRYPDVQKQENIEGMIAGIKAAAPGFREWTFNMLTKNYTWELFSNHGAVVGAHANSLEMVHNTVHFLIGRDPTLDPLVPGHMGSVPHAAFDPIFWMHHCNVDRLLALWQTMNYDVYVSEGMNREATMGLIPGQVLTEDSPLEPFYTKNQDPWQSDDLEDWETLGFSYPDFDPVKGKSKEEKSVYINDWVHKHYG

Inhibitory Activitis (IC50) Lipid Peroxidation [3] [µg/mL] | IC50 [4] [µM] | Compound | Automated Oxygen Radical Absorbance Capacity (ORAC μM TE/g) ROO. [1] [μM/g × 10^3] | TEAC [2] [μM TE/g] | Automated Oxygen Radical Absorbance Capacity (ORAC μM TE/g) OH. [5] [μM/g × 10^6] | Automated Oxygen Radical Absorbance Capacity (ORAC μM TE/g) Prooxidant [6] [µM/g] | FRAP [7] | Inhibitory Activitis (IC50) Elastase [4] [µg/mL] | Inhibitory Activitis (IC50) Tyrosinase [8] [µg/mL]
0.929 |  | O=C(O[C@@H]1Cc2c(O)cc(O)cc2O[C@@H]1c1cc(O)c(O)c(O)c1)c1cc(O)c(O)c(O)c1 [EGCG, epigallocatechin gallate, reference compound] | 14.970 ± 5.53 | 11545.4 ± 17.28 | 3.911 ± 4.65 | 6.483 ± 1.19 | 3326.45 ± 5.76 μM AAE/g |  | 
6.449 | 274 | COc1ccc(-c2oc3cc(O)cc(O)c3c(=O)c2O)cc1O [Compound 8, 4'-methoxyquercetin] | 12.545 ± 5.07 | 1009.01 ± 1.98 | 6.779 ± 3.40 | 8.963 ± 2.79 | 3584.17 ± 0.54 μM AAE/g |  | 
10.720 | > 335 | COc1cc2oc(-c3ccccc3)cc(=O)c2c(O)c1OC [Compound 10, mosloflavone] | 2.403 ± 2.50 | 699.66 ± 2.28 | 2.909 ± 8.41 | 6.482 ± 1.55 | 544.60 ± 6.98 μM AAE/g |  | 
10.520 | > 333 | COc1ccc(-c2oc3cc(O)cc(O)c3c(=O)c2O)cc1 [Compound 9, 4'-methoxykaempferol] | 10.491 ± 0.97 | 261.30 ± 4.02 | 3.675 ± 1.40 | 3.790 ± 1.15 | 191.47 ± 1.39 μM AAE/g |  | 
2.931 |  | O=c1c(O)c(-c2ccc(O)c(O)c2)oc2cc(O)cc(O)c12 [Compound 7, quercetin] | 17.836 ± 2.90 | 1361.70 ± 1.98 | 7.265 ± 0.71 | 4.361 ± 0.78 | 4816 ± 7.42 μM AAE/g and 4816.31 ± 7.42 μM AAE/g |  | 

Second part, the compound before the results:

Compound | Inhibitory Activitis (IC50) Lipid Peroxidation [3] [µg/mL] | IC50 [4] [µM] | Automated Oxygen Radical Absorbance Capacity (ORAC μM TE/g) ROO. [1] [μM/g × 10^3] | TEAC [2] [μM TE/g] | Automated Oxygen Radical Absorbance Capacity (ORAC μM TE/g) OH. [5] [μM/g × 10^6] | Automated Oxygen Radical Absorbance Capacity (ORAC μM TE/g) Prooxidant [6] [µM/g] | FRAP [7] | Inhibitory Activitis (IC50) Elastase [4] [µg/mL] | Inhibitory Activitis (IC50) Tyrosinase [8] [µg/mL]
CC(C)=CCc1c(O)cc(O)c(C(=O)/C=C/c2ccccc2)c1O [Compound 3, 2',4',6'-trihydroxy-3'-prenylchalcone] | 21.276 | > 308 | 5.025 ± 6.16 | 4529.01 ± 2.44 | 3.771 ± 3.02 | 4.704 ± 0.27 | 817.94 ± 4.26 μM AAE/g |  | 
CC(C)=CCc1c(O)cc2c(c1O)C(=O)C[C@@H](c1ccccc1)O2 [Compound 4, isoglabranin] | >26.750 | > 308 | 1.063 ± 33.50 | 43.17 ± 6.26 | 2.918 ± 4.13 | 3.947 ± 0.29 | 7.052 ± 3.76 μM AAE/g |  | 
CC(C)=CCOc1cc(O)c(C(=O)/C=C/c2ccccc2)c2c1C=CC(C)(C)O2 [Compound 1, 2'-hydroxy-5',6'-(2,2-dimethylpyrano)-4'-(O-prenyl)-chalcone] | >26.750 | > 256 | 2.833 ± 3.88 |  | 2.998 ± 1.67 | 2.036 ± 2.98 |  |  | 
isoxanthohumol [Compound 2] | >26.750 |  | 3.113 ± 17.59 | 4170.66 ± 6.72 | 2.910 ± 6.00 | 3.601 ± 2.23 | 619.91 ± 1.97 μM AAE/g | >100 | >50
CC(C)=CCc1c(O)cc(O)c2c1O[C@H](c1ccccc1)CC2=O [Compound 5, glabranin] | >26.750 | > 308 | 0.856 ± 17.35 | 204.15 ± 2.04 | 2.997 ± 0.36 | 2.971 ± 1.10 | 67.79 ± 14.27 μM AAE/g |  | 
